Measurements taken from US7211602B2, “Treatment of neurodegenerative disorders through the modulation of the polyamine pathway” (ALS Therapy Development Foundation, Inc., priority 2001, dated 2007).
Like-named read-outs stand apart in the source and are kept apart here.

Key:
[1] = test system: patients with advanced non-small cell lung cancer; conditions: Hahm et al. 2002; cited from earlier work
ODC = conditions: cited from earlier work

Description for SOD1 G93A mice: • (i) Model Description: The SOD1 G93A (high copy) mouse model was used as the model for ALS. This mouse model carries 25 copies of the human G93A SOD mutation and is driven by the endogenous promoter. Survival in the mouse is copy dependent. The high copy G93A has a median survival of around 128 days. High molecular weight complexes of mutant SOD protein are seen in the spinal cord beginning around day 30. At day 60 reactive astrocytosis (GFAP reactive) are observed; activated microglia are observed from day 90 onwards.
DFMO was obtained in oral form from ILEX Oncology, Inc (San Antonio, Tex.). • (iv) Methods: Forty (n=40) SOD1 G93A high copy mice obtained from Jackson Laboratory (Bar Harbor, Me.) were separated into two groups of twenty (n=20) with an equal number of males (n=10) and females (n=10) in each group. The groups were also litter matched to reduce group variation. Male animals were singly housed and females were group housed to conserve space. […] When animals had difficulty in moving and taking care of themselves chow and water were replaced with food pellets in bedding and Jell-O for water. • (v) Pharmacological Agent Delivery: All pharmacological agents were administered to SOD1 G93A mice. DFMO was delivered according to a chronic delivery protocol applied in the human glioblastoma trial (UCSF Clinical trial protocol of ALS).
In Example 2, the animals were dosed at 3200 mg/Kg/day of DFMO in drinking water for 21 days followed by a 7 day drug holiday (no DFMO). In Example 3, the animals were continually dosed at 3200 mg/Kg/day of DFMO in drinking water. Controls animals were given water as vehicle. All treatments are performed 7 days per week and treatment was initiated at day 60 of life. The treated group continued to receive 3200 mg/kg/day of DFMO in drinking water until a neurological score of 2 (See section (vi) below) at which point drug was delivered via intraperitineal injection (IP) injection. When a neurological score of 2 is attained, the animals are no longer capable of drinking themselves due to paralysis. At this point, the same dosage of DFMO is administered to the animal in IP injection form. Controls were given water as vehicle until a neurological score of 2 at which point they were injected with saline as vehicle.
In Example 6, hydroxyurea was administered by intraperitineal injection at a dose of 250 mg/Kg/day once daily for 7 days a week, beginning at day 50 until day 110.
The animals are sacrificed at this stage if alive. • (vii) End Points and Statistics: The primary end point is survival with secondary end points of neurological score and body weight. Neurological score observations and body weight are made and recorded five days per week. • (viii) Statistical Analysis: Statistical analysis on body weight and neurological score was performed using mixed linear model repeated measure ANOVA. Survival analysis was performed by Kaplan-Meier analysis using the frailty model for sex and litter correction.

**Q.** Which results are given for `NCCCC(N)(C(=O)O)C(F)F` (racemic) [DFMO, 2-(Difuoromethyl)-DL-ornithine]?
**A.** effect in male mice, ongoing IP injection study (SOD1 G93A mice; IP injection, 3200 mg/kg, male mice): positive male trend; Percent survival analysis: life span (SOD1 G93A mice; continuous dosing 3200 mg/Kg/day in drinking water, no drug holiday, until death, FIGS. 4, 6 and 8): extended the life span; Neurological score analysis, combined male and female (SOD1 G93A mice; continuous dosing 3200 mg/Kg/day, combined male and female, FIG. 5): protective; Neurological score analysis, female (SOD1 G93A mice; continuous dosing 3200 mg/Kg/day, FIG. 9): protective; Neurological score analysis, male (SOD1 G93A mice; continuous dosing 3200 mg/Kg/day, male, FIG. 7): protective; Neurological score analysis, combined results (SOD1 G93A mice; discontinuous dosing 3200 mg/Kg/day, combined male and female mice): No effect; Neurological score analysis, female mice (SOD1 G93A mice; discontinuous dosing 3200 mg/Kg/day, female mice, during the drug delivery period, FIG. 3): protective; Neurological score analysis, male mice (SOD1 G93A mice; discontinuous dosing 3200 mg/Kg/day, male mice): No effect; Percent survival analysis: onset of disease and survival (SOD1 G93A mice; discontinuous dosing, 3200 mg/Kg/day in drinking water, 21 days on / 7 day holiday, FIG. 2): delays the onset of disease and extends the survival; deaths of animals in the treatment group that occurred during the drug holiday or a few days immediately succeeding the holiday (SOD1 G93A mice; female SOD1 G93A mice, 3200 mg/Kg/day in drinking water for 21 days followed by 7 day drug holiday, control group 30%, FIG. 2): 70%

**Q.** What does the source list for `CCNCCCNCCCNCCCNCC` [DENSPM, N(1),N(11)-diethylnorspermine]?
**A.** safety of administration to patients [1]: minimal toxicity; Neurological score analysis, female (SOD1 G93A mice; intraperitoneal 24 mg/kg/day twice daily till death, FIG. 13): protective; Percent survival analysis: onset of disease and survival (SOD1 G93A mice; intraperitoneal 24 mg/kg/day twice daily, 7 days a week till death, female mice, FIG. 12): delays the onset of disease and extends the survival

**Q.** With `NC(=O)NO` [hydroxyurea] as the compound, how does the “Percent survival analysis: life span” value (SOD1 G93A mice; intraperitoneal 250 mg/Kg/day once daily, day 50 until day 110, female mice, FIG. 10) read?
**A.** extended the life span

**Q.** What about the “Neurological score analysis, female” value (SOD1 G93A mice; intraperitoneal 250 mg/Kg/day once daily, day 50 until day 110, FIG. 11) of the same compound?
**A.** protective

**Q.** For `NCCCCNCCCN` [spermidine], which “concentration in the culture medium that can inhibit ODC production for hours” value (ODC) is on record?
**A.** 50 µM
